What all share (assay): NCI anticancer screen, dose series, 48 h
Assay [1] relates to RPMI-8226 leukemia.
For assay [2], the system named is EKVX NSCLC.
Assay [3] concerns SF-268 CNS.
The test system of assay [4] is BT-549 breast.
Assay [5] concerns HOP-62 NSCLC.
The test system of assay [6] is SF-539 CNS.
The subject of assay [7] is U251 CNS.
Assay [8] deals with CAKI-1 renal.
Assay [9] deals with HCT-116 colon.
Assay [10] has as its system UACC-257 melanoma.

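Values below derive from 48-hour exposures of cells grown in 96-well plates, with endpoints linearly interpolated between the two concentrations bracketing the appropriate inhibition level. TGI is the concentration that stops growth completely.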

Regarding `CCCC(=O)NC(Nc1ccc(S(=O)(=O)Nc2nc(C)cc(C)n2)cc1)(C(F)(F)F)C(F)(F)F`, the TGI in assay [1], in assay [2], in assay [3], in assay [4], in assay [5] and in assay [6] was above 100 µM in each case. Besides, the TGI in [7], in assay [8], in assay [9] and in [10] was above 100 µM each time.
Turning to `c1ccc2c(c1)CCc1c-2n(CCN2CCOCC2)c2ccccc12`, the TGI in assay [1], in assay [2], in assay [3], in [4], in [5] and in [6] was above 100 µM throughout. Moreover, the TGI in assay [7], in assay [8], in assay [9] and in [10] was above 100 µM throughout.
On to `O=c1ccn(CC2(CO)CC(Cc3ccccc3)C2)c(=O)[nH]1` (stereo not given), for which the TGI in assay [1], in assay [2], in assay [3], in [4], in [5] and in assay [6] was above 100 µM in each case. Further, the TGI in assay [7], in assay [8], in assay [9] and in assay [10] was above 100 µM throughout.
`COc1c(O)cc(O)c2c(=O)cc(-c3ccccc3)oc12`: the TGI is 37.1 µM in assay [1]; above 100 µM in [2]; above 100 µM in assay [3]; above 100 µM in assay [4]; 49.8 µM in [5]; above 100 µM in [6]. The TGI in assay [7] is above 100 µM; in assay [8] it was above 100 µM; in assay [9], 78.4 µM; in assay [10], above 100 µM.
For `Cc1c(NC(=O)CSC(=S)N2CCN(Cc3ccccc3)CC2)c(=O)n(-c2ccccc2)n1C`, the TGI in assay [1], in assay [2], in [3], in assay [4], in assay [5] and in assay [6] was above 100 µM in each case. For the same compound, the TGI in assay [7], in assay [8], in assay [9] and in [10] was above 100 µM throughout.
As to `O=C1/C(=N\S(=O)(=O)c2ccccc2)C([n+]2ccc(Cc3ccccc3)cc2)=C([O-])c2ccccc21`, the TGI in assay [1] is above 100 µM; in assay [2] it was 3.27 µM; in [3], 3.9 µM; in [4], 2.72 µM; in assay [5], 3.27 µM; in [6] it was 3.45 µM. For the same compound, the TGI was 5.48 µM in assay [7], 3.44 µM in [8], 2.46 µM in assay [9] and 2.54 µM in [10].
In the case of `O=c1[nH]nc(-c2ccccc2)n1/N=C/c1cccnc1`, the TGI in [1], in assay [2], in assay [3], in assay [4], in assay [5] and in assay [6] was above 100 µM each time. In addition, the TGI in assay [7] is above 100 µM; in assay [8], 72.4 µM; in assay [9], above 100 µM; in assay [10] it was above 100 µM.
Turning to `Cc1cn(Cc2cnnn2CC2OC(n3cc(C)c(=O)[nH]c3=O)CC2O)c(=O)[nH]c1=O` (stereo not given), the TGI in assay [1], in assay [2], in assay [3], in assay [4], in [5] and in [6] was above 100 µM throughout. The TGI in assay [7], in assay [8], in assay [9] and in assay [10] was above 100 µM throughout.
For the compound `O=C(O)c1nc(-c2ccccc2)[nH]c1C(=O)O`, the TGI in assay [1] was 4.14 µM; in assay [2], 33 µM; in [3], 34.8 µM; in assay [4], 35.9 µM; in [5], 32.6 µM; in assay [6], 22.7 µM. Further, the TGI in assay [7] turned out to be 8.33 µM; in [8] it was 27.5 µM; in assay [9], 16 µM; in assay [10] it was 30.3 µM.
Take `CC1(C)[C@H]2CC[C@]1(C)[C@H](OC(=O)NNC(=O)O[C@@H]1C[C@@H]3CC[C@@]1(C)C3(C)C)C2`: the TGI in [1] turned out to be 30.7 µM; in assay [2], 31.2 µM; in assay [3], 33.1 µM; in assay [4], 42.9 µM; in [5], 29.5 µM; in [6] it was 29.9 µM. Moreover, the TGI amounted to 62.9 µM in assay [7], 28.8 µM in assay [8], 34.5 µM in [9] and 33 µM in assay [10].
Take `CC1CC/C(=C\c2ccc(Cl)cc2)C2OC(N)=C(C#N)C(c3ccc(Cl)cc3)=C12` (stereo not given): the TGI in [1] was determined as 29.2 µM; in assay [2], 22.7 µM; in assay [3], 31.2 µM; in assay [4], 30.7 µM; in [5] it was 9.84 µM; in [6], 28 µM. Further, the TGI in assay [7] is 30.6 µM; in [8], 31.2 µM; in assay [9], 27.4 µM; in [10] it was 53.4 µM.
`CC1(O)CC(=O)c2c(cc3ccc(-c4c5c(c(O)c6c(O)cccc46)C(=O)CC(C)(O)C5)c(O)c3c2O)C1` (stereo not given): the TGI came to 2.8 µM in assay [1]; 4.35 µM in assay [2]; 1.81 µM in assay [3]; 6.75 µM in assay [4]; 1.55 µM in assay [5]; 2.34 µM in assay [6]. The TGI in assay [7] is 1.74 µM; in assay [8] it was 2.92 µM; in assay [9] it was 3.86 µM; in assay [10], 1.3 µM.
